Test results from article PMC7432838, “A Curcumin Analog Exhibits Multiple Biologic Effects on the Pathogenesis of Alzheimer’s Disease and Improves Behavior, Inflammation, and β-Amyloid Accumulation in a Mouse Model” (International Journal of Molecular Sciences, 2020).

How the values were obtained:
[1] = Water solubility (preformulation, preliminary studies); type: physicochemical; details: unformulated
Experimental: The active pharmaceutical ingredients of TML-6 were synthesized and physico-chemical properties were characterized by SinoPharm Pharmaceutical Company (SPT), Tainan, Taiwan. Preformulation studies on the solubility of TML-6 were conducted by Value Pharmaceutical Services (VPS) Company, Jiansu, China. All the data in this study were conducted using unformulated TML-6. Formulation to optimize the solubility and permeability of TML-6 is under development for toxicological studies.

[2] = system: 3xTg AD transgenic mice; test: Morris water maze test in 3xTg AD transgenic mice; type: in vivo, mouse; details: 150 mg/kg/day in diet for four months; six-month-old 3xTg AD mice; vs vehicle control
Experimental: (§1) The triplex transgenic mouse model (3xTg-AD, APP Swedish, MAPT P301L, and PSEN1 M146V) was adopted as the AD model and bred at the laboratory animal center of National Cheng Kung University (NCKU), Tainan, Taiwan. The mice were housed in a room maintained on a 12 h light–dark cycle and fed ad libitum. Six-month old 3xTg-AD mice were used for animal experiments. Experimental procedures for handling the mice were in accordance with the guidelines of the Institutional Animal Care and Use Committee (IACUC) of NCKU. These mice develop plaques and tangles pathology. Aβ deposition is progressive, and deposition appears as early as nine months for triplex-Tg mice. The AD transgenic mice were fed with the control diet (Laboratory Rodent Diet 5001, LabDiet, St. Louis, MO, USA), the control diet plus traditional curcumin (150 mg/kg), or the control diet plus TML-6 (150 mg/kg) for four months. Diets were stored at 4 °C and were added to mouse cage twice a week. The quantity of the diet consumed by the mice was determined daily. The concentration of curcumin and TML-6 in the diet was determined to be around 1.20 mg/g of diet after assaying by HPLC by the Development Center for the Biotechnology (DCB), Taipei, Taiwan.
For assessing spatial learning and memory, the Morris water maze was used as we described before. […] The time taken to reach the platform was recorded as escape latency.

[3] = system: phospho-mTOR in Huh-7 cells; test: Western blotting of phospho-mTOR; type: cell-based, human; details: Huh-7, 24 h
Experimental: (§2) After cells were seeded and treated with curcumin and TML-6 for 24 h, cells were washed with ice-cold PBS (Phosphate Buffered Saline) and lysed with 100 μL of RIPA cell lysis buffer (Pierce Biotechnology, Rockford, IL, USA) supplemented with protease and phosphatase inhibitors (Roche Diagnostics, Mannheim, Germany). Cell lysates were further cleaned by centrifugation at 14,000 rpm at 4 °C for 15 min. Protein concentration was determined using a Bradford assay (Bio-Rad, Hercules, CA, USA). For Western blot analysis, 20 μg of each sample was prepared for SDS-PAGE (SDS Poly-acrylamide-gel-electrophoresis) and denatured at 95 ℃ for 10 min. The samples prepared from total lysates were loaded and separated by SDS-PAGE (8% or 10%), and then transferred to PVDF membranes (pore size 0.45 μm; PerkinElmer, Waltham, MA, USA) by semi-dry transfer cell (Bio-Rad). After blocking with 5% skim milk in PBS-T (0.1% Tween-20), the membranes were hybridized with primary antibodies at 1/1000 dilution at 4 °C overnight. On the next day, membranes were washed with PBS-T followed by incubation with HRP-conjugated anti-mouse or anti-rabbit secondary antibody (DAKO, Santa Clara, CA, USA) at 1/5000 dilution at room temperature for 1 h as appropriate. Finally, the images were captured by Amersham Imager 600 (GE Healthcare Life Sciences, Marlborough, MA, USA) after being developed using the chemiluminescent HRP substrate (Millipore, Bedford, MA, USA). The primary antibodies used in this study were anti-APP, anti-NF-κB (Cell Signaling Technology, Danvers, MA, USA), anti-Apo E, anti-p-mTOR (Abcam, Cambridge, MA, USA).

[4] = system: Iba-1 (microglial activation marker) in 3xTg AD mouse hippocampus; test: Immunofluorescence staining of Iba-1 in brain of 3xTg AD mice; type: in vivo; details: 150 mg/kg/day in diet for four months
Experimental: as §1, with “The AD transgenic mice were fed with the control diet (Laboratory Rodent Diet 5001, LabDiet, St. Louis, MO, USA), the control diet plus traditional curcumin (150 mg/kg), or the control diet plus TML-6 (150 mg/kg) for four months. Diets were stored at 4 °C and were added to mouse cage twice a week.” left out
(§3) Mice were anesthetized using pentobarbital (60 mg/kg, intravenous) and then transcardial perfusion was performed with 0.01 M PBS (pH 7.4). […] Images were captured by the TissureFAXS microscopy system and positive signals were quantified by TissueQuest software module (TissueGnostic, Vienne, Austria).

[5] = system: N2a/APPswe stable cells; test: Cell viability/morphology by micrographs during Aβ ELISA treatment; type: cell-based, mouse; details: 24 h
Experimental: (§4) Extracellular levels of soluble Aβ40 and Aβ42 were determined by LEGEND MAX™ β-Amyloid x-40 and X-42 ELISA Kit (Biolegend, San Diego, CA, USA). Overexpression of the APP Swedish mutation (APPswe) in the N2a neuronblastoma cell line was called the N2a/APPswe cell line. N2a/APPswe stable cells were seeded at 8 × 10^5 cells in 6 cm dishes. After overnight incubation, the cells were treated with curcumin and TML-6 for 24 h. […] The culture supernatant was collected and centrifuged at 1500× g at 4 °C for 5 min to remove cells. The culture supernatants from various treatments were conducted to examine the Aβ levels according to the manufacturer’s instructions. The samples for the detection of soluble Aβ levels were diluted in the supernatant at a 1:10 dilution for this experiment. Levels of soluble Aβ were detected by measuring the OD at 620 nm (Molecular Devices, San Jose, CA, USA). The calculation of Aβ levels was based on the standard curves of Aβ40 and Aβ42, respectively.

[6] = system: human neuroglioma H4-APP751 stable cell line; parameters: method as in PMID 20622013; details: 15 and 20 μM, no cytotoxicity; cited from earlier work
[7] = system: Aβ in 3xTg AD mouse brain; test: Immunofluorescence staining of Aβ in brain of 3xTg AD mice; type: in vivo; details: 150 mg/kg/day in diet for four months
Experimental: as §1, with “The AD transgenic mice were fed with the control diet (Laboratory Rodent Diet 5001, LabDiet, St. Louis, MO, USA), the control diet plus traditional curcumin (150 mg/kg), or the control diet plus TML-6 (150 mg/kg) for four months. Diets were stored at 4 °C and were added to mouse cage twice a week.” left out
as §3

[8] = system: APP (amyloid precursor protein) in Huh-7 cells; test: Western blotting of APP protein expression; type: cell-based, human; details: 5 µg/mL, 24 h, vs medium control
Experimental: as §2, with “Finally, the images were captured by Amersham Imager 600 (GE Healthcare Life Sciences, Marlborough, MA, USA) after being developed using the chemiluminescent HRP substrate (Millipore, Bedford, MA, USA). The primary antibodies used in this study were anti-APP, anti-NF-κB (Cell Signaling Technology, Danvers, MA, USA), anti-Apo E, anti-p-mTOR (Abcam, Cambridge, MA, USA).” left out

[9] = system: Aβ40 production in N2a/APPswe stable cells; test: Aβ40 ELISA of culture medium; type: cell-based, mouse; details: different doses up to 20 µg/mL, 24 h
Experimental: as §4

[10] = system: Huh-7 cells; test: Cytotoxicity assay by Cell Counting Kit-8 (CCK-8); type: cell-based, human; details: Huh-7, 24 h
Experimental: The cytotoxicity assay was performed using the Cell Counting Kit-8 (CCK-8, Sigma). We dissolved 0.0524 g of TML-6 (molecular weight is 523.62 g/mol) in 10 mL DMSO to obtain TML-6 stock at 10 mM for cell line study. […] Briefly, Huh-7 cells were seeded overnight in 96-well plates at 5000 cells/well and then subjected to traditional curcumin or TML-6 treatment for 24 h. At each time point, a CCK-8 solution (0.25 mg/mL) was added to the medium in each well for an additional 4 h incubation, and absorbance was measured at 570 nm using an ELISA reader.

[11] = system: phospho-NF-κB in Huh-7 cells; test: Western blotting of phosphorylated NF-κB; type: cell-based, human; details: 10 µg/mL, 24 h, vs medium control
Experimental: as §2, with “Finally, the images were captured by Amersham Imager 600 (GE Healthcare Life Sciences, Marlborough, MA, USA) after being developed using the chemiluminescent HRP substrate (Millipore, Bedford, MA, USA). The primary antibodies used in this study were anti-APP, anti-NF-κB (Cell Signaling Technology, Danvers, MA, USA), anti-Apo E, anti-p-mTOR (Abcam, Cambridge, MA, USA).” left out

[12] = system: Aβ42 production in N2a/APPswe stable cells; test: Aβ42 ELISA of culture medium; type: cell-based, mouse; details: different doses up to 20 µg/mL, 24 h
Experimental: as §4

[13] = system: rat neuroblastoma B104-APP751 stable cell line; parameters: method as in PMID 20622013; details: 15 and 20 μM, no cytotoxicity; cited from earlier work
[14] = Pharmacokinetic study after oral administration in SD rats; type: in vivo, rat; details: SD rats, oral 150 mg/kg
Experimental: In order to evaluate the bioavailability of curcumin and its analog TML-6, pharmacokinetic studies were commissioned and conducted by the Development Center for Biotechnology (DCB, Taipei, Taiwan). The kinetics of curcumin and TML-6 in blood were collected at 0.25, 0.5, 1, 2, 4, 6, 8 and 10 h after oral administration of curcumin and TML-6 at the dose of 150 mg/kg in male Sprague–Dawley Rats.

curcumin [reference compound]
water solubility [1]: less than 0.1 mg/mL | learning behavior in Morris water maze (in words) [2]: no significant difference | phospho-mTOR suppression (Western blot, in words) [3]: suppressed in a dose-dependent manner | Iba-1 expression vs vehicle (in words) [4]: no significant change | highest dose, at which cytotoxicity was seen (micrographs) [5]: 20 µg/mL | Aβ40 and Aβ42 levels (in words) [6]: significantly decreased | Aβ expression in brain vs vehicle (in words) [7]: trend of reduction but without significant differences | reduction of APP protein expression level [8]: 30% | Aβ40 level vs control (in words) [9]: increased to levels higher than those of the control | IC50 [10]: 60 µM | cytotoxicity (CCK-8) ([10]; up to highest concentration of 20 µg/mL): no obvious cytotoxicity | decrease of phosphorylated NF-κB level [11]: 35% | Aβ42 level vs control (in words) [12]: increased to levels higher than those of the control | Aβ40 and Aβ42 levels (in words) [13]: significantly decreased | blood concentrations at each time point [14]: not detectable
